Experimental data published in US11629171B2, “Beta-hairpin peptidomimetics” (POLYPHOR AG, priority 2017, dated 2023).
Converted amounts (≈) assume the structure as drawn. Where a SMILES comes first, the peptide text is derived from it. Bridges are numbered along the chain shown (N, C = ends). Roman numbers before positions name the chains, in order. [ ]: non-standard residue; d: D form. Pen = CC(C)(S)[C@H](N)C(=O)O; Hiv = CC(C)[C@H](O)C(=O)O; dDab = NCC[C@@H](N)C(=O)O; hSer = N[C@@H](CCO)C(=O)O; Dab = NCC[C@H](N)C(=O)O; Abu = CC[C@H](N)C(=O)O; Dap = NC[C@H](N)C(=O)O

Tests used:
male ICR mice = test: Tolerability in a mouse model (Maximum Tolerated Dose assay); format: in vivo; conditions: 2 × 40 mg/kg s.c. at a 12-hr interval, groups of 3
In short: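 Groups of 3 male ICR mice weighing 23±3 g received two subcutaneous doses, 12 h apart, of 30 or 40 mg/kg in saline adjusted to pH 6.5-7.6. Observation for 30 min after each dose covered autonomic effects and acute toxicity, including death.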

[1] = system: Enterobacter cloacae 848840; format: cell-based; conditions: 848840
In short: (§1)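 Visible-growth endpoint after 18-20 h at 35° C defines the MIC (μg/mL). Setup: CLSI broth microdilution, MH-II cation-adjusted broth with P-80 at 0.002% final, inoculum of approximately 10^6 CFU/mL, two-fold serial peptide dilutions.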

[2] = system: Klebsiella pneumoniae SSI #3010; format: cell-based; conditions: SSI #3010
In short: as §1

[3] = system: Acinetobacter baumannii DSM 30008; format: cell-based; conditions: DSM 30008
In short: as §1

Escherichia coli 926415 = format: cell-based; conditions: 926415
In short: as §1

[4] = system: Pseudomonas aeruginosa ATCC 27853; format: cell-based; conditions: ATCC 27853
In short: as §1

[5] = system: Klebsiella pneumoniae 968733; format: cell-based; conditions: 968733
In short: as §1

[6] = system: Escherichia coli ATCC 25922; format: cell-based; conditions: ATCC 25922
In short: as §1

[7] = system: Acinetobacter baumannii 872842; format: cell-based; conditions: 872842
In short: as §1

[8] = system: human red blood cells (hRBC); test: Hemolysis; format: cell-based; conditions: red cells of human, 1 h, 200
In short: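 Hemoglobin release from PBS-washed hRBC at 20% (v/v), incubated 1 h at 37° C with peptides at 200 μg/mL, is measured at 540 nm. Values are blank corrected and given as a fraction of Triton X-100 lysis × 100%.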

Row | SMILES | Mortality and dose (male ICR mice) | MIC [1] [mg/L] | Klebsiella pneumoniae SSI #3010 MIC [2] [mg/L] | Acinetobacter baumannii DSM 30008 MIC [3] [mg/L] | MIC (Escherichia coli 926415) [mg/L] | Pseudomonas aeruginosa ATCC 27853 MIC [4] [mg/L] | MIC [5] [mg/L] | Escherichia coli ATCC 25922 MIC [6] [mg/L] | MIC [7] [mg/L] | Hemolysis at 200 μg/mL [8] [%]
1 | CC(=O)N[C@H](C(=O)N[C@H]1CSSC[C@@H](C(=O)N[C@@H](CO)C(N)=O)NC(=O)[C@H](C(C)C)NC(=O)[C@H](CO)NC(=O)[C@H](Cc2c[nH]c3ccccc23)NC(=O)[C@H](CO)NC(=O)CNC(=O)[C@H](CCC(=O)N[C@@H](CCN)C(=O)N[C@H](C(=O)N[C@@H](CN)C(=O)N[C@H]2CCNC(=O)[C@H]([C@@H](C)O)NC(=O)[C@H](CCN)NC(=O)[C@H](CCN)NC(=O)[C@H](CC(C)C)NC(=O)[C@@H](CC(C)C)NC(=O)[C@H](CCN)NC2=O)[C@@H](C)O)NC(=O)[C@H](CCN)NC(=O)[C@H](Cc2ccc(O)cc2)NC1=O)C(C)C [Ex. 337] (I: Ac-VCY[Dab]EGSWSVCS-NH2 / II: [Dab]T[Dap][Dab][Dab][dL]L[Dab][Dab]T; disulfide I:2-I:11; amide I:5-II:N; lactam II:4-II:C) | 0/3 died at 2 × 40 mg/kg | 0.25 (≈ 0.106 µM) | 0.125 | 0.125 | 1 (≈ 0.424 µM) | 0.25 | 2 (≈ 0.849 µM) | 0.0625 | 0.25 (≈ 0.106 µM) | 2
2 | CC[C@@H]1NC(=O)[C@@H](CC(C)C)NC(=O)[C@H](CCN)NC(=O)[C@@H](NC(=O)[C@H](CN)NC(=O)[C@@H](NC(=O)[C@H](CCN)NC(=O)CC[C@@H]2NC(=O)[C@H](CCN)NC(=O)[C@H](Cc3ccc(O)cc3)NC(=O)[C@@H](NC(=O)[C@@H](NC(C)=O)C(C)C)CSSC[C@@H](C(=O)N[C@@H](CO)C(N)=O)NC(=O)[C@H]([C@@H](C)CC)NC(=O)[C@H](CO)NC(=O)[C@H](Cc3c[nH]c4ccccc34)NC(=O)[C@H](CO)NC(=O)[C@@H](CCN)NC2=O)[C@@H](C)O)CCNC(=O)[C@H]([C@@H](C)O)NC(=O)[C@H](CCN)NC(=O)[C@H](CCN)NC1=O [Ex. 338] (I: Ac-VCY[Dab]E[dDab]SWSICS-NH2 / II: [Dab]T[Dap][Dab][Dab][dL][Abu][Dab][Dab]T; disulfide I:2-I:11; amide I:5-II:N; lactam II:4-II:C) | 0/3 died at 2 × 40 mg/kg | 0.0625 (≈ 0.0262 µM) | 0.03125 | 0.03125 | 0.0625 (≈ 0.0262 µM) | 0.125 | 0.125 (≈ 0.0524 µM) | 0.03125 | 0.0625 (≈ 0.0262 µM) | <1
3 | CC[C@@H]1NC(=O)[C@H](CO)NC(=O)[C@H](Cc2c[nH]c3ccccc23)NC(=O)[C@H](CO)NC(=O)[C@@H](CCN)NC(=O)[C@H](CCC(=O)N[C@@H](CCN)C(=O)N[C@H](C(=O)N[C@@H](CN)C(=O)N[C@H]2CCNC(=O)[C@H]([C@@H](C)O)NC(=O)[C@H](CCN)NC(=O)[C@H](CCN)NC(=O)[C@H](CC)NC(=O)[C@@H](CC(C)C)NC(=O)[C@H](CCN)NC2=O)[C@@H](C)O)NC(=O)[C@H](CCN)NC(=O)[C@H](Cc2ccc(O)cc2)NC(=O)[C@@H](NC(=O)[C@@H](NC(C)=O)C(C)C)CSSC[C@@H](C(=O)N[C@@H](CO)C(N)=O)NC1=O [Ex. 339] (I: Ac-VCY[Dab]E[dDab]SWS[Abu]CS-NH2 / II: [Dab]T[Dap][Dab][Dab][dL][Abu][Dab][Dab]T; disulfide I:2-I:11; amide I:5-II:N; lactam II:4-II:C) | 0/3 died at 2 × 40 mg/kg | 0.125 (≈ 0.053 µM) | 0.0625 | 0.0625 | 0.5 (≈ 0.212 µM) | 0.125 | 0.5 (≈ 0.212 µM) | 0.0625 | 0.125 (≈ 0.053 µM) | <1
4 | CC(C)C[C@@H]1NC(=O)[C@@H](CC(C)C)NC(=O)[C@H](CCN)NC(=O)[C@@H](NC(=O)[C@H](CN)NC(=O)[C@@H](NC(=O)[C@H](CCN)NC(=O)CC[C@@H]2NC(=O)[C@H](CCN)NC(=O)[C@H](Cc3ccc(O)cc3)NC(=O)[C@@H](NC(=O)[C@@H](O)C(C)C)C(C)(C)SSC[C@@H](C(=O)N[C@@H](CO)C(N)=O)NC(=O)[C@H](C(C)C)NC(=O)[C@H](CO)NC(=O)[C@H](Cc3c[nH]c4ccccc34)NC(=O)[C@H](CO)NC(=O)[C@@H](CCN)NC2=O)[C@@H](C)O)CCNC(=O)[C@H]([C@@H](C)O)NC(=O)[C@H](CCN)NC(=O)[C@H](CCN)NC1=O [Ex. 340] (I: H-[Hiv][Pen]Y[Dab]E[dDab]SWSVCS-NH2 / II: [Dab]T[Dap][Dab][Dab][dL]L[Dab][Dab]T; disulfide I:2-I:11; amide I:5-II:N; lactam II:4-II:C) | 0/3 died at 2 × 40 mg/kg | 0.125 (≈ 0.0524 µM) | 0.0625 | 0.0625 | 0.125 (≈ 0.0524 µM) | 0.25 | 0.25 (≈ 0.105 µM) | 0.03125 | 0.0625 (≈ 0.0262 µM) | <1
5 | CC(=O)N[C@H](C(=O)N[C@H]1CCNC(=O)C[C@@H](C(=O)N[C@@H](CO)C(N)=O)NC(=O)[C@H](C(C)C)NC(=O)[C@H](CO)NC(=O)[C@H](Cc2c[nH]c3ccccc23)NC(=O)[C@H](CO)NC(=O)[C@@H](CCN)NC(=O)[C@H](CCC(=O)N[C@@H](CCN)C(=O)N[C@H](C(=O)N[C@@H](CN)C(=O)N[C@H]2CCNC(=O)[C@H]([C@@H](C)O)NC(=O)[C@H](CCN)NC(=O)[C@H](CCN)NC(=O)[C@H](CC(C)C)NC(=O)[C@@H](CC(C)C)NC(=O)[C@H](CCN)NC2=O)[C@@H](C)O)NC(=O)[C@H](CCN)NC(=O)[C@H](Cc2ccc(O)cc2)NC1=O)C(C)C [Ex. 341] (I: Ac-V[Dab]Y[Dab]E[dDab]SWSVDS-NH2 / II: [Dab]T[Dap][Dab][Dab][dL]L[Dab][Dab]T; lactam I:2-I:11, II:4-II:C; amide I:5-II:N) | 0/3 died at 2 × 40 mg/kg | 2 (≈ 0.836 µM) | 0.0625 | 0.0625 | 0.5 (≈ 0.209 µM) | 0.125 | 1 (≈ 0.418 µM) | 0.0625 | 0.25 (≈ 0.105 µM) | <1
6 | CC(=O)N[C@H](C(=O)N[C@H]1CSSC[C@@H](C(=O)N[C@@H](CO)C(N)=O)NC(=O)[C@H](C(C)C)NC(=O)[C@H](CO)NC(=O)[C@H](Cc2c[nH]c3ccccc23)NC(=O)[C@H](CCO)NC(=O)[C@@H](CCN)NC(=O)[C@H](CCC(=O)N[C@@H](CCN)C(=O)N[C@H](C(=O)N[C@@H](CN)C(=O)N[C@H]2CCNC(=O)[C@H]([C@@H](C)O)NC(=O)[C@H](CCN)NC(=O)[C@H](CCN)NC(=O)[C@H]([C@@H](C)O)NC(=O)[C@@H](CC(C)C)NC(=O)[C@H](CCN)NC2=O)[C@@H](C)O)NC(=O)[C@H](CCN)NC(=O)[C@H](Cc2ccc(O)cc2)NC1=O)C(C)C [Ex. 343] (I: Ac-VCY[Dab]E[dDab][hSer]WSVCS-NH2 / II: [Dab]T[Dap][Dab][Dab][dL]T[Dab][Dab]T; disulfide I:2-I:11; amide I:5-II:N; lactam II:4-II:C) | 0/3 died at 2 × 40 mg/kg | 0.125 (≈ 0.0521 µM) | 0.0625 | 0.0625 | 0.25 (≈ 0.104 µM) | 0.125 | 0.5 (≈ 0.208 µM) | 0.03125 | 0.25 (≈ 0.104 µM) | <1
